Assay type in all cases: biochemical
For assay [1], the target named is T1, hCES1A (Homo sapiens, UniProt P23141).
T1 construct: tissue Bioreclamation IVT lot no; X008067; host or cells: pooled human liver microsomes (50 donors)
T1 sequence (P23141 18-567): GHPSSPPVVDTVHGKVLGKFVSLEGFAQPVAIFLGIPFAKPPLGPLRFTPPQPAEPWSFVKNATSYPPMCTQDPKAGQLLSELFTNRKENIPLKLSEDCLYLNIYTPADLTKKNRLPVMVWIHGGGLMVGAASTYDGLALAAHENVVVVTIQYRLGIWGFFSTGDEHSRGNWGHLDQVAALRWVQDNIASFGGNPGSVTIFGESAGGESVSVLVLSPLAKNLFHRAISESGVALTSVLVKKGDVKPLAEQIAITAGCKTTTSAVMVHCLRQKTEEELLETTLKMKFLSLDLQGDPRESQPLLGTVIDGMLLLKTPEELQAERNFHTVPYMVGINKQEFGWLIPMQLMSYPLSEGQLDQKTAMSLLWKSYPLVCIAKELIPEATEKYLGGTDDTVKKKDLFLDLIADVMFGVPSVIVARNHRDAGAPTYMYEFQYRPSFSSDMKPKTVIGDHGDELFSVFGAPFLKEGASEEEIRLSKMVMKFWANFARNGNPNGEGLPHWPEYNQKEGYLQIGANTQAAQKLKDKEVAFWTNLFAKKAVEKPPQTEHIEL
Briefly: hCES1A inhibition assay (DME hydrolysis in HLM).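 Further: Read-out is D-luciferin luminescence formed from DME (3 µM) after 10 min at 37 °C in pH 6.5 PBS, HLM 1 µg/mL, inhibitor preincubated 3 min, oleanic acid as positive control.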
Protocol: DME hydrolysis was used as the probe reaction to assay the inhibitory effects of 25 ginsenosides against hCES1A, oleanic acid was used as a positive control of inhibition assays [43]. The incubation system contains 91 μL PBS (0.1 M pH 6.5), 5 μL HLM (1 μg/mL, final concentration) and 2 μL corresponding inhibitor. After pre-incubating the reaction mixture for 3 min at 37 °C, the reaction was started by adding 2 μL DME (3 μM, final concentration) with a total volume of 100 μL, in which the final content of DMSO was limited to 2% (v/v). After incubating for 10 min at 37 °C in a shaking bath, LDR (50 μL, equal volume of the incubation mixture) was added to terminate the reaction. The luminescence signals of D-luciferin (the hydrolytic metabolite of DME) was measured (excitation wavelength 580 nm) by a multi-mode microplate reader (SpectraMax® iD3, Molecular Devices, Austria).

The target in assay [2] is T2, hCES2A (Homo sapiens, UniProt O00748).
T2 construct: tissue Bioreclamation IVT lot no; X008067; host or cells: pooled human liver microsomes (50 donors)
T2 sequence (O00748 27-559): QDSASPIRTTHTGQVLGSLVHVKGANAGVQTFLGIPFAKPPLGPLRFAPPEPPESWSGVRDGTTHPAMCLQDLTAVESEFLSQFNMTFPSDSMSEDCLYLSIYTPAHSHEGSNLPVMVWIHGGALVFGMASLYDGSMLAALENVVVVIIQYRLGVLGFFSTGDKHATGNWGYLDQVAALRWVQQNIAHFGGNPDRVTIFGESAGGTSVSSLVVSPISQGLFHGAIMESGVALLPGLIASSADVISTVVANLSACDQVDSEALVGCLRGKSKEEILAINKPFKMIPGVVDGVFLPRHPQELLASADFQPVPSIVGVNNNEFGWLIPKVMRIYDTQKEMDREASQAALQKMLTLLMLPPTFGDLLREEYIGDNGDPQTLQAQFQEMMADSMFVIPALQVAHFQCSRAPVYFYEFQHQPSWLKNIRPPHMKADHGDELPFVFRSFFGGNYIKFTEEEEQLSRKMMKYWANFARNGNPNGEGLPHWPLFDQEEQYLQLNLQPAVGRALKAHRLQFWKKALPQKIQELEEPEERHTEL
Briefly: hCES2A inhibition assay (FD hydrolysis in HLM).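 On all read-outs here: HLM at 1 µg/mL in 0.1 M PBS pH 7.4, kinetic read at 37 °C every 30 s over 30 min, triplicate runs.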 The note with it: for inhibition of hCES2A-mediated FD hydrolysis (residual activity screen): HLM, ginsenoside 100 μM, result in words; for Specificity (hCES1A/hCES2A): ratio of IC50 values in HLM; for IC50: HLM as enzyme source, FD hydrolysis as probe reaction, read-out: IC50 (μM) hCES2A.
Protocol: The incubation system contains 2 μL HLM (1 μg/mL, final concentration), 194 μL PBS (0.1 M pH 7.4) and 2 μL corresponding inhibitor. […] The kinetic parameters were set at 30 reads, with an interval of 30 s (30 min) and shake during 5 s before the first read at 37 °C.

In assay [3] the target is T1, hCES1A. The experiment in a line: Inhibition kinetic analyses of hCES1A-mediated DME hydrolysis in HLM. The procedure: According to the inhibition kinetics of both hCES1A and hCES2A, which were investigated by using varying concentrations of probe substrates in the presence of different concentrations of ginseng compounds (inhibitors), the inhibition constant (Ki) and inhibition kinetic types of ginsenosides were determined. The experimental details used to determine the inhibition constants have been reported previously.
All inhibition assays were performed in triplicate, nonlinear regression was used to determine the IC50 and Ki values with GraphPad Prism 7.0 software (GraphPad Software, Inc., La Jolla, USA).

Assay [4] has as its target T2, hCES2A. Briefly: Inhibition kinetic analyses of hCES2A-mediated FD hydrolysis in HLM.
Setting [5] is: HLM as enzyme source, DME hydrolysis as probe reaction, read-out: IC50 (μM) hCES1A.

Read-outs that look alike come from different tables or passages of the source.

Regarding `CC(C)=CCC[C@](C)(O)[C@H]1CC[C@]2(C)[C@@H]1CC[C@@H]1[C@@]3(C)CC[C@H](O)C(C)(C)[C@@H]3CC[C@]12C` [DM, Dammarenediol II], the IC50 at hCES1A [1] (setting [5]) worked out at 1.99 ± 0.21 µM. Moreover, on hCES2A [2], the “inhibition of hCES2A-mediated FD hydrolysis (residual activity screen)” value is given as “strong or moderate inhibition” and the “Specificity (hCES1A/hCES2A)” value came out at 3.06. Moreover, on hCES1A [3], the Inhibition mode result is “Competitive” and affinity was put at a Ki of 2100 nM. Further, the Inhibition mode entry at hCES2A [4] is reported as “Mixed”.
For the compound `CC(C)=CCC[C@](C)(O[C@@H]1O[C@H](CO)[C@@H](O)[C@H](O)[C@H]1O)C1CC[C@]2(C)C1CCC1[C@@]3(C)CC[C@H](O)C(C)(C)C3CC[C@]12C` (stereo partly drawn) [DMG, 20S-O-β-(D-glucosyl)-dammarenediol II], at hCES1A [1] (setting [5]), the IC50 stood at 1.76 ± 0.28 µM. For the same compound, the “inhibition of hCES1A-mediated DME hydrolysis (residual activity screen)” value at hCES1A [1] (HLM, ginsenoside 100 μM, result in words) is “strong inhibition”. Besides, at hCES2A [2], the IC50 was determined as 1.06 ± 0.21 µM and the “inhibition of hCES2A-mediated FD hydrolysis (residual activity screen)” value is “strong inhibition”. Besides, at hCES1A [3], the Inhibition mode entry is “Competitive” and the affinity, expressed as Ki, was 2400 nM. In addition, on hCES2A [4], the Inhibition mode entry is listed as “Mixed” and the affinity corresponds to a Ki of 2830 nM.
Regarding `CC(C)=CCC[C@](C)(O)[C@H]1CC[C@]2(C)[C@@H]1[C@H](O)C[C@@H]1[C@@]3(C)CC[C@H](O)C(C)(C)[C@@H]3CC[C@]12C` [PPD, protopanaxadiol], the IC50 at hCES1A [1] (setting [5]) is more than 100 µM. At hCES2A [2], the “inhibition of hCES2A-mediated FD hydrolysis (residual activity screen)” value is given as “strong or moderate inhibition” and the “Specificity (hCES1A/hCES2A)” value was more than 75.18. In addition, the Inhibition mode result at hCES2A [4] is “Mixed”.
As to `CC(C)=CCC[C@](C)(O)[C@H]1CC[C@]2(C)[C@@H]1[C@H](O)C[C@@H]1[C@@]3(C)CC[C@H](O)C(C)(C)[C@@H]3[C@@H](O)C[C@]12C` [PPT, protopanaxatriol], at hCES1A [1] (setting [5]), the IC50 was more than 100 µM. At hCES2A [2], the “inhibition of hCES2A-mediated FD hydrolysis (residual activity screen)” value is “strong or moderate inhibition” and the “Specificity (hCES1A/hCES2A)” value was more than 116.28. The Inhibition mode result at hCES2A [4] is given as “Mixed”.
With `CC(C)=CCC[C@](C)(O)[C@H]1CC[C@]2(C)[C@@H]1[C@H](O)C[C@@H]1[C@@]3(C)CC[C@H](O[C@@H]4O[C@H](CO)[C@@H](O)[C@H](O)[C@H]4O)C(C)(C)[C@@H]3CC[C@]12C` [Rh2], the IC50 against hCES1A [1] was more than 100 µM. For the same compound, the “Specificity (hCES1A/hCES2A)” value at hCES2A [2] is more than 18.86.
Take `CC1(C)CCC2(C(=O)OC3OC(CO)C(O)C(O)C3O)CCC3(C)C(=CCC4C5(C)CCC(OC6OC(C(=O)O)C(O)C(O)C6OC6OC(CO)C(O)C(O)C6O)C(C)(C)C5CCC43C)C2C1` (centres unmarked) [Ro]: the half-maximal inhibitory concentration (IC50) at hCES1A [1] (setting [5]) and on hCES2A [2] was more than 100 µM throughout.

Broadly, the IC50 is the concentration needed to halve the response being measured. In general, Ki refers to the dissociation constant of the complex between target and ligand, obtained from inhibition or displacement. The low end stands for a stronger hold on the target, the high end for a looser hold on the target.

The values are drawn from paper PMC6915887, “Inhibition of human carboxylesterases by ginsenosides: structure–activity relationships and inhibitory mechanism” (Chinese Medicine, 2019).
